From patent US10618901B2 (GlaxoSmithKline Intellectual Property Development Limited, priority 2014, dated 2020)

Target: T1, 6HIS-Tev-LRRK2 (1326-2527) (Homo sapiens, UniProt Q5S007)
T1 construct: A LRRK2 cDNA encoding residues 1326-2527 was received from Dundee University; made in house; host or cells: Spodoptera frugiperda Sf9 (baculovirus, pFB-HTb)
T1 sequence (Q5S007 1326-2527): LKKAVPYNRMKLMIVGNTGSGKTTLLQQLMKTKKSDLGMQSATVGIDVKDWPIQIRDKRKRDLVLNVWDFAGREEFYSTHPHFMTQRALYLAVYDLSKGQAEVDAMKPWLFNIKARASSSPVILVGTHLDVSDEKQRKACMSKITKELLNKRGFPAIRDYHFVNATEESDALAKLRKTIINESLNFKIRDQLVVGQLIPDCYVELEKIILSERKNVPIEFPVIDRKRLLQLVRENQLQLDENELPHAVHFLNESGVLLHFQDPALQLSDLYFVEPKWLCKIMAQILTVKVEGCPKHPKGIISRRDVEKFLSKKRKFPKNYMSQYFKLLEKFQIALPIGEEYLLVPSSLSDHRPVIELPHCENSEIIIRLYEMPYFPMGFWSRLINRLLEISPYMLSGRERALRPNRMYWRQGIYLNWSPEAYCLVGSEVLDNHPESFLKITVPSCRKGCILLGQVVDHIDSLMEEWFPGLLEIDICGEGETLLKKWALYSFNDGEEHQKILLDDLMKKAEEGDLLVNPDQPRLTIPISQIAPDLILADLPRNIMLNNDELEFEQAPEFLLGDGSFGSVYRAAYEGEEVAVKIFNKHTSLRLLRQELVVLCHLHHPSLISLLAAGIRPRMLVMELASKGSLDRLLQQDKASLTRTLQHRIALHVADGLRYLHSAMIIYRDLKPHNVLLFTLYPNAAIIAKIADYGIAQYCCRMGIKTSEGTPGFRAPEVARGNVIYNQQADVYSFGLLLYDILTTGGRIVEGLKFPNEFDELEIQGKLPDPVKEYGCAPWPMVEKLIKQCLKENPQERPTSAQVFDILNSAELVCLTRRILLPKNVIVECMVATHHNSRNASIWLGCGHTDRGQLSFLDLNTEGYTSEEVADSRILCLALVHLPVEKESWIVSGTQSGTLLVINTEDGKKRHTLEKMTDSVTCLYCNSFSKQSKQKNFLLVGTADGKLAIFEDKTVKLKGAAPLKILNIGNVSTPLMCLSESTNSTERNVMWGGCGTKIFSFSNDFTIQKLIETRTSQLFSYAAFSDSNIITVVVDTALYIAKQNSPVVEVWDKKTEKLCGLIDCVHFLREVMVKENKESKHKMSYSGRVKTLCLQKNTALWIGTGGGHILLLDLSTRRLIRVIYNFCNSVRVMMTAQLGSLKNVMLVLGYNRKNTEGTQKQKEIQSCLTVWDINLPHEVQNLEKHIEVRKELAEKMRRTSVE
Experiment: LRRK2 Inhibition Mass Spectrometry Assay
Type: biochemical
Details: 60 nM LRRK2 enzyme; 25 uM LRRKtide; 20 uM ATP; read-out: LRRK2 Inhibition Mass Spectrometry Assay (pIC50) (converted)
Protocol: A LRRK2 cDNA encoding residues 1326-2527 was received from Dundee University (described in M. Jaleel et al., 2007, Biochem J, 405: 407-417). This gene fragment was subcloned into pFB-HTb (Invitrogen) using BamHI and NotI restriction sites. The LRRK2 plasmid was recombined into the baculovirus genome according to the BAC-to-BAC protocol described by Invitrogen. Transfection into Spodoptera frugiperda (Sf9) insect cells was performed using Cellfectin (Invitrogen), according to the manufacturer's protocol to generate P1 and P2 baculovirus stocks.
Sf9 cells were grown in HyClone SFX (Thermo Scientific) growth media at 27° C., 80 rpm in shake flask until of a sufficient volume to inoculate a bioreactor. The cells were grown in a 20 liter working volume Wave bioreactor (GE Healthcare) at 27° C., 50% dissolved oxygen and an agitation rate 22 rocks per minute, 10 degree rock angle, 200 ml/min air with a cell concentration of approximately 6×e6 cells/ml. The cells were infected with P2 Baculovirus at a multiplicity of infection (MOI) of 3. The cultivation was continued for a 48 hour expression phase. The infected cells were removed from the growth media by centrifugation at 2500 g using a Sorvall RC 3C Plus centrifuge at 2500 g for 20 minutes. The cell pellet was immediately frozen and subsequently supplied for purification.
A 260 g pellet was allowed to thaw in a water bath at 27° C. with 800 ml lysis buffer/buffer A (50 mm Tris-HCl pH 8.5, 300 mM NaCl, 1 mm DTT, 10% glycerol, 1 ml/L calbiochem complete protease inhibitor cocktail and benzonase (50 ul/800 ml)) before being dounce homogenised on ice using 20 strokes per 100 ml. The suspension was packed in ice and sonicated at 50% amplitude for 3 min 10 sec on/off using a ¾″ probe. The suspension was then centrifuged at 100,000 g for 90 min, at 4° C.
The lysate (700 ml) was decanted from the insoluble pellet and contacted for 3 h at 4 C with 10 ml His bind Ni NTA resin by end over end mixing. The resin was recovered by centrifugation, 3000 g, 5 min at 4 C, and packed in an XK16 column. The column was then washed with 10 column volumes buffer A, 10 column volumes buffer B (buffer A+1M NaCl) and 10 column volumes buffer C (buffer A+20 mM imidazole). The column was then eluted with 15 column volumes buffer D (buffer A+300 mM imidazole) collecting 2 ml fractions. All washes and elution were conducted at 4 ml/min.
Fractions identified by SDS-PAGE as containing protein of interest were pooled and loaded directly onto a 320 ml SEC Superdex 200 pg column that was pre-equilibrated with buffer E (50 mM Tris-HCl pH 8.5, 300 mM NaCl, 10% glycerol, 1 mM DTT). The column was loaded and eluted with 1.2 column volumes buffer E at 2 ml/min collecting 2 ml fractions. Fractions identified by SDS-PAGE as containing protein of interest were tested for activity.
Production of LRRKtide for LRRK2 Inhibition Mass Spectrometry Assay
The ‘LRRKtide’ peptide H-RLGRDKYKTLRQIRQ-OH was synthesized as follows. The protected peptide was assembled on a solid-phase synthesiser using preloaded Wang resin and utilising standard Fmoc synthesis protocols. The crude peptide was obtained after cleavage from the resin with a mixture of trifluoroacetic acid (TFA), triisopropylsilane and water (95:2.5:2.5) for 3 hours at room temperature and was then purified using a C18 reverse-phase column utilising a 0.1% TFA-buffered water/acetonitrile gradient. The resulting fractions were analysed and fractions which were >95% pure by analytical HPLC and giving the correct molecular weight (mw) (by MALDiTOF mass spectroscopy) were pooled and freeze dried. The final material was analysed by HPLC and MALDiTOF mass spectroscopy.
LRRK2 Inhibition Mass Spectrometry Assay
This assay for Leucine Rich Repeat Kinase 2 (LRRK2) inhibition is based on the direct measurement of the peptide ‘LRRKtide’ (LRRKtide: RLGRDKYKT*LRQIRQ (H-RLGRDKYKTLRQIRQ-OH used for this screen)) and phosphorylated ‘LRRKtide’ using a high throughput RapidFire mass spectrometry assay. […]

IC50	Structure (SMILES)
7.94 nM	CCOc1nc(Nc2cnn(C3CCN(C4COC4)CC3(F)F)c2Cl)nc2[nH]ccc12 (single isomer, unassigned) [Example E134, N-(5-chloro-1-(3,3-difluoro-1-(oxetan-3-yl)piperidin-4-yl)-1H-pyrazol-4-yl)-4-ethoxy-7H-pyrrolo[2,3-d]pyrimidin-2-amine]
10 nM	CCOc1nc(Nc2cnn(C3CCOCC3C)c2C)nc2[nH]ccc12 (single isomer, unassigned) [Example E113, (cis)-4-ethoxy-N-(5-methyl-1-(3-methyltetrahydro-2H-pyran-4-yl)-1H-pyrazol-4-yl)-7H-pyrrolo[2,3-d]pyrimidin-2-amine]
10 nM	CCOc1nc(Nc2cnn(C3CN(C)CCC3(F)F)c2C)nc2[nH]ccc12 (single isomer, unassigned) [Example E121, N-(1-(4,4-difluoro-1-methylpiperidin-3-yl)-5-methyl-1H-pyrazol-4-yl)-4-ethoxy-7H-pyrrolo[2,3-d]pyrimidin-2-amine]
7.94 nM	CCOc1nc(Nc2cnn([C@@H]3CCN(C4COC4)C[C@H]3F)c2Cl)nc2[nH]ccc12 (single isomer, unassigned) [Example E105]
10 nM	CCOc1nc(Nc2cnn(C3CN(C4COC4)CCC3(F)F)c2Cl)nc2[nH]ccc12 (single isomer, unassigned) [Example E124, N-(5-chloro-1-(4,4-difluoro-1-(oxetan-3-yl)piperidin-3-yl)-1H-pyrazol-4-yl)-4-ethoxy-7H-pyrrolo[2,3-d]pyrimidin-2-amine]
7.94 nM	CCOc1nc(Nc2cnn([C@H]3CCN(C4COC4)C[C@@H]3F)c2Cl)nc2[nH]ccc12 (single isomer, unassigned) [Example E104]
10 nM	CCOc1nc(Nc2cnn(C3CC(N4CCOCC4)C3)c2C)nc2[nH]ccc12 (stereo not drawn) [Example E86, 4-ethoxy-N-(5-methyl-1-(3-morpholinocyclobutyl)-1H-pyrazol-4-yl)-7H-pyrrolo[2,3-d] pyrimidin-2-amine]
7.94 nM	CCOc1nc(Nc2cnn(C3CN(C4COC4)CCO3)c2Cl)nc2[nH]ccc12 (single isomer, unassigned) [Example E141, N-(5-chloro-1-(4-(oxetan-3-yl)morpholin-2-yl)-1H-pyrazol-4-yl)-4-ethoxy-7H-pyrrolo[2,3-d]pyrimidin-2-amine]
7.94 nM	CCOc1nc(Nc2cnn(CCN3CCO[C@H](C(F)F)C3)c2C)nc2[nH]ccc12 [Example E100, (S)—N-(1-(2-(2-(difluoromethyl)morpholino)ethyl)-5-methyl-1H-pyrazol-4-yl)-4-ethoxy-7H-pyrrolo[2,3-d]pyrimidin-2-amine]
